Results from patent US6610670B2, “Cyclodextrin-drospirenone inclusion complexes” (Schering Aktiengesellschaft, priority 2000, dated 2003).

Assay: Phase solubility diagram technique (PSD) in aqueous solutions at 20° C.
Format: physicochemical
Settings: water, thermodynamic from solid, aqueous solution
Experimental: The following data were obtained with the phase solubility diagram technique (PSD) In aqueous solutions at 20° C. The stability constants of the inclusion compound from β-CD and drospirenone are given.

solubility: 41.4 µM
solubility (value in parentheses): 15.1 µg/mL
Compound: C[C@]12CCC(=O)C=C1[C@@H]1C[C@@H]1[C@H]1[C@@H]3[C@@H]4C[C@@H]4[C@@]4(CCC(=O)O4)[C@@]3(C)CC[C@@H]12 [Drospirenone, 6β,7β;15β,16β-dimethylene-3-oxo-17α-pregn-4-ene-21,17-carbolactone]
